Tests used:
[1] = system: live mouse fibroblast 3T3 cells; experiment: Ratiometric imaging of labile Zn(II) by TPEM (excitation at 750 nm); assay type: cell-based
Experimental: With reference to FIG. 7A, emission-ratiometric imaging of labile Zn(II) pools in live mouse fibroblast 3T3 cells with Formula I, Formula II, and/or a derivative thereof (e.g., for example probe 8) by TPEM (excitation at 750 nm). (A) of FIG. 7A Left: The emission was collected with 520 nm-600 nm (BP2) and 440 nm-495 nm (BP1) bandpass filters respectively. Right: Intensity ratio images with R=BP2/BP1. (B) of FIG. 7A Left: Ratio images (BP2/BP1) before (prior to t=5 min) and after the addition of 50 μM ZnSO4 and 5.0 μM pyrithione. Addition of TPEN at t=15 min resulted the reversal of the initial of fluorescence ratio change. (C) of FIG. 7A Mean fluorescence ratio of the cytoplasmic region averaged over 10 cells (P values calculated for n=10 using a two-tailed test). (D) of FIG. 7A Time course of the average ratio change for the mean fluorescence ratio in the cytosol averaged over 10 cells.
To evaluate the Zn(II)-dependent ratiometric response of Formula I and/or Formula IA (e.g., for example probe 8) in live cells, imaging experiments were performed with live mouse fibroblasts (3T3) as model cell line.
In various embodiments, mouse fibroblast (3T3) cells were grown on poly-L-lysine treated glass bottom culture dishes (MatTek) to 90% confluency in DMEM growth media supplemented with 10% bovine calf serum, and 1% penicillin-streptomycin. Before imaging, the media was replaced with pre-warmed colorless serum-free DMEM (1% penicillin-streptomycin, and 1% sodium pyruvate) containing 1.0 μM of probe 8. The cells were incubated at 37° C. under an atmosphere of humidified air containing 5% CO2 for 15 mins. The incubation solution was replaced with prewarmed colorless serum free DMEM. Images were acquired at 37° C., 8% humidity, and 5% CO2 using a Zeiss LSM NLO 710 microscope equipped with a femtosecond pulsed Ti:sapphire laser and a blue 405 nm laser. Scanning fluorescence micrographs were acquired with excitation at 405 nm or 750 nm and the emission was simultaneously collected with bandpass ranges of 495-440 nm (BP1) and 600-520 nm (BP2). Image J was used to evaluate the change in fluorescence emission ratio over time as previously described. The emission ratio for each region of interest was averaged at each time point.
TPEN solid was fully dissolved in anhydrous DMSO to a concentration of 3.0 mM. The stock solution was further diluted to 1.0 mM in pre-warmed phenol-red-free DMEM media before each imaging experiments. The ZnSO4 stock solution was prepared in DI H2O and the pyrithione stock solution was prepared in anhydrous DMSO to a concentration of 3.0 mM. The stock solution of Zn(II)/pyrithione was prepared and diluted with phenol red free DMEM. To determine the limiting emission intensity ratios Rmin and Rmax, mouse fibroblast cells were supplemented with Zn(II)-pyrithione (50 μM ZnSO4 and 5.0 μM pyrithione), and then TPEN (100 μM).

[2] = Fluorometric competition titration with EGTA, Zn(II) complex stability constant; assay type: binding
Experimental: FIG. 6A illustrates the fluorometric determination of the Zn(II) complex stability constant of probe 8 via competition titration with EGTA. (A) of FIG. 6A illustrates an exemplary Formula I, Formula II, and/or a derivative thereof (e.g., for example probe 8) (10 μM) that was equilibrated with molar equivalent of Zn(OTf)2 in chelexed PIPES buffer (pH 7.0, 10 mM PIPES, 0.1 M KCl, 25° C.) containing 100 μM 4:1 DMPC:DMPG liposomes and titrated with EGTA to a final concentration of 50 μM. The fluorescence spectra (excitation at 405 nm) were analyzed by non-linear least squares fitting. (B) FIG. 6A illustrates an exemplary change in fluorescence response at 515 nm with the corresponding fit using the equilibrium system model as defined in the table of FIG. 6B.
The binding affinity of Formula I, Formula II, and/or a derivative thereof (e.g., for example probe 8) was analyzed in PIPES buffer containing 100 μM of 4:1 DMPC:DMPG liposomes (pH 7.0, 10 mM PIPES, 0.1 M KCl, 25° C.). […] The binding affinity is over 400-fold weaker than chromis-1 acid, and approximately 10-fold lower than chromis-1 ester. The discrepancy in binding affinities is likely due to a combination of two factors. […]
A solution of Formula I, Formula II, and/or a derivative thereof (e.g., for example probe 8) was diluted from a 3.0 mM DMSO stock solution to a final concentration of 10 μM in Chelex®-treated PIPES buffer (10 mM, 0.1 M KCl, pH 7.0) containing 10 μM of Zn(OTf)2 and 100 μM of liposomes (4:1 mixture of DMPC and DMPG). […] After the addition of each aliquot of EGTA, the solution was allowed to equilibrate for 1 minute, and a fluorescence spectrum (excitation at 405 nm, spectral window 415-665 nm) was acquired. The titration was conducted in triplicate, and the data were analyzed by nonlinear least-squares fitting over the entire spectral range using the SPECFIT software package.

COc1ccc2c(c1)C(C)(C)c1nc(-c3cccc(CN(Cc4ncccn4)Cc4ncccn4)n3)sc1-2 [probe 8]
cellular uptake ([1]; 3T3 cells, TPEM): readily internalized | average fluorescence ratio R (BP2/BP1) ([1]; after 50 μM ZnSO4 and 5.0 μM pyrithione, TPEM 750 nm): 1.35±0.16 | average fluorescence ratio R (BP2/BP1) ([1]; after TPEN, TPEM 750 nm): 0.59±0.05 | increase of fluorescence ratio ([1]; after Zn(II)/pyrithione against basal, TPEM 750 nm): more than 2 fold | average fluorescence ratio R (BP2/BP1) ([1]; basal, 1.0 μM probe, TPEM 750 nm): 0.59±0.06 | binding affinity weaker than chromis-1 acid ([2]; Zn(II) affinity compared with chromis-1 acid): over 400 fold | binding affinity lower than chromis-1 ester ([2]; Zn(II) affinity compared with chromis-1 ester): approximately 10 fold | Kd ([2]; pH 7.0, ionic background 0.1 M KCl, 25° C., liposomes, read-out: apparent dissociation constant Kd for Zn(II)): 18.5 nM

Source: US20240410831A1, “Multi-Mode Zinc-Selective Emission-Ratiometric Fluorescent Probes for Biological Application” (Georgia Tech Research Corporation, priority 2023, published 2024)
